From US8633200B2, “Inhibitors of human immunodeficiency virus replication” (priority 2010, dated 2014) come the findings set out here.

The structures appear in SMILES notation. Structures can show the parent of a compound that is named as a salt.

The first assay concerns recombinant NL-Rluc virus (NL4-3 with Renilla Luciferase gene) in MT-2 cells. Kind of assay: Inhibition of HIV replication (NL-Rluc luciferase reporter virus, MT-2 cells). Format: cell-based, human immunodeficiency virus (HIV). Conditions: NL43, 120 h, read-out: Activity. A general note: A reporter such as luciferase makes a cellular process visible.
In the case of `Cc1ccc(-c2c(C(OC(C)(C)C)C(=O)O)c(C)nc3cc(-c4ccccc4)nn23)cc1C` (stereo not shown) [Example 1, 2-tert-Butoxy-2-(7-(3,4-dimethylphenyl)-5-methyl-2-phenylpyrazolo[1,5-a]pyrimidin-6-yl)acetic acid, TFA salt], the EC50 is greater than 1 µM.
On the same count and under the same terms, then `Cc1nc2cc(-c3ccccc3)nn2c(-c2ccc3c(c2)CCC3)c1C(OC(C)(C)C)C(=O)O` (stereo not shown) [Example 2], with greater than 1 µM.
As to `Cc1nc2cc(-c3ccccc3)nn2c(-c2ccc3c(c2)CCCO3)c1C(OC(C)(C)C)C(=O)O` (stereo not shown) [Example 3], the EC50 was in the range of 0.1 to 1 µM.
Turning to `Cc1nc2cc(-c3ccccc3)nn2c(-c2ccc(Cl)cc2)c1C(OC(C)(C)C)C(=O)O` (stereo not shown) [Example 4], the EC50 was greater than 1 µM.
With `Cc1nc2cc(-c3ccccc3)nn2c(-c2ccc3ccccc3c2)c1C(OC(C)(C)C)C(=O)O` (stereo not shown) [Example 5], the EC50 was greater than 1 µM.
Same read-out and setting: next, `Cc1nc2cc(-c3ccccc3)nn2c(-c2cccnc2)c1C(OC(C)(C)C)C(=O)O` (stereo not shown) [Example 6]: greater than 1 µM.
As to `Cc1nc2cc(-c3ccccc3)nn2c(-c2ccccc2OC(F)(F)F)c1C(OC(C)(C)C)C(=O)O` (stereo not shown) [Example 7], the EC50 is greater than 1 µM.
On to `COc1cccc(-c2c(C(OC(C)(C)C)C(=O)O)c(C)nc3cc(-c4ccccc4)nn23)c1` (stereo not shown) [Example 8], for which the EC50 was greater than 1 µM.
Same read-out and setting: then `COc1ccccc1-c1c(C(OC(C)(C)C)C(=O)O)c(C)nc2cc(-c3ccccc3)nn12` (stereo not shown) [Example 9], with greater than 1 µM; and `Cc1nc2cc(-c3ccccc3)nn2c(-c2ccccc2)c1C(OC(C)(C)C)C(=O)O` (stereo not shown) [Example 10], with greater than 1 µM.
On to `CC(=O)Nc1ccc(-c2c(C(OC(C)(C)C)C(=O)O)c(C)nc3cc(-c4ccccc4)nn23)cc1` (stereo not shown) [Example 11], for which the EC50 was greater than 1 µM.
For the compound `COc1ccc(-c2c(C(OC(C)(C)C)C(=O)O)c(C)nc3cc(-c4ccccc4)nn23)cn1` (stereo not shown) [Example 12], the EC50 is greater than 1 µM.
Still for that read-out and setting: next, `Cc1nc2cc(-c3ccccc3)nn2c(-c2ccc(C#N)cc2)c1C(OC(C)(C)C)C(=O)O` (stereo not shown) [Example 13]: greater than 1 µM.
`Cc1ccccc1-c1c(C(OC(C)(C)C)C(=O)O)c(C)nc2cc(-c3ccccc3)nn12` (stereo not shown) [Example 14]: the EC50 is greater than 1 µM.
`Cc1nc2cc(-c3ccccc3)nn2c(-c2ccc(C(F)(F)F)cc2)c1C(OC(C)(C)C)C(=O)O` (stereo not shown) [Example 15]: the EC50 is greater than 1 µM.
On to `Cc1nc2cc(-c3ccccc3)nn2c(-c2cccc(Cl)c2)c1C(OC(C)(C)C)C(=O)O` (stereo not shown) [Example 16], for which the EC50 was greater than 1 µM.
The same measure, in the same setting: then `Cc1cccc(-c2c(C(OC(C)(C)C)C(=O)O)c(C)nc3cc(-c4ccccc4)nn23)c1` (stereo not shown) [Example 17], with greater than 1 µM; and `Cc1nc2cc(-c3ccccc3)nn2c(-c2ccc(F)cc2F)c1C(OC(C)(C)C)C(=O)O` (stereo not shown) [Example 18], with greater than 1 µM; and `Cc1nc2cc(-c3ccccc3)nn2c(-c2ccc3c(c2)OCCO3)c1C(OC(C)(C)C)C(=O)O` (stereo not shown) [Example 19], with greater than 1 µM.
As for `Cc1nc2cc(-c3ccccc3)nn2c(-c2ccc(O)cc2)c1C(OC(C)(C)C)C(=O)O` (stereo not shown) [Example 20], the EC50 is greater than 1 µM.
For the compound `Cc1nc2cc(-c3ccccc3)nn2c(-c2ccncc2)c1C(OC(C)(C)C)C(=O)O` (stereo not shown) [Example 21], the EC50 is greater than 1 µM.
As for `COc1ccc(-c2c(C(OC(C)(C)C)C(=O)O)c(C)nc3cc(-c4ccccc4)nn23)cc1OC` (stereo not shown) [Example 22], the EC50 is greater than 1 µM.
In the case of `Cc1nc2cc(-c3ccccc3)nn2c(-c2ccc(F)cc2)c1C(OC(C)(C)C)C(=O)O` (stereo not shown) [Example 23], the EC50 is greater than 1 µM.
As for `Cc1nc2cc(-c3ccccc3)nn2c(-c2ccc(Oc3ccccc3)cc2)c1C(OC(C)(C)C)C(=O)O` (stereo not shown) [Example 24], the EC50 is greater than 1 µM.
As for `Cc1nc2cc(-c3ccccc3)nn2c(-c2ccc(OC(F)(F)F)cc2)c1C(OC(C)(C)C)C(=O)O` (stereo not shown) [Example 25], the EC50 is greater than 1 µM.
For `Cc1nc2cc(-c3ccccc3)nn2c(-c2ccc3c(c2)CCO3)c1C(OC(C)(C)C)C(=O)O` (stereo not shown) [Example 26], the EC50 is 0.1 to 1 µM.
As to `Cc1nc2cc(-c3ccccc3)nn2c(-c2ccc(Cl)cc2F)c1C(OC(C)(C)C)C(=O)O` (stereo not shown) [Example 27], the EC50 is greater than 1 µM.
Same read-out and setting: next, `Cc1nc2cc(-c3ccccc3)nn2c(-c2ccc3occc3c2)c1C(OC(C)(C)C)C(=O)O` (stereo not shown) [Example 28]: greater than 1 µM; `COc1ccc(-c2c(C(OC(C)(C)C)C(=O)O)c(C)nc3cc(-c4ccccc4)nn23)cc1C(F)(F)F` (stereo not shown) [Example 29]: greater than 1 µM.
The same measure, in the same setting: next, `Cc1nc2cc(-c3ccccc3)nn2c(-c2ccc3c(c2)OCO3)c1C(OC(C)(C)C)C(=O)O` (stereo not shown) [Example 30]: greater than 1 µM; `Cc1nc2cc(-c3ccccc3)nn2c(-c2ccc(OCc3ccccc3)cc2)c1C(OC(C)(C)C)C(=O)O` (stereo not shown) [Example 31]: greater than 1 µM.
Regarding `COc1ccc(-c2c(C(OC(C)(C)C)C(=O)O)c(C)nc3cc(-c4ccccc4)nn23)cc1` (stereo not shown) [Example 32], the EC50 is greater than 1 µM.
`COc1ccc(-c2c(C(OC(C)(C)C)C(=O)O)c(C)nc3cc(-c4ccccc4)nn23)cc1F` (stereo not shown) [Example 33]: the EC50 was greater than 1 µM.
As for `Cc1nc2cc(-c3ccccc3)nn2c(-c2ccc(OC(C)C)cc2)c1C(OC(C)(C)C)C(=O)O` (stereo not shown) [Example 34], the EC50 was greater than 1 µM.
For the compound `COc1cc(F)c(-c2c(C(OC(C)(C)C)C(=O)O)c(C)nc3cc(-c4ccccc4)nn23)cc1F` (stereo not shown) [Example 35], the EC50 was greater than 1 µM.
For `Cc1nc2cc(-c3ccccc3)nn2c(-c2ccc3c(ccn3C)c2)c1C(OC(C)(C)C)C(=O)O` (stereo not shown) [Example 36], the EC50 lay in the range of 0.1 to 1 µM.
On to `Cc1nc2cc(-c3ccccc3)nn2c(-c2ccc3c4c(ccnc24)CCO3)c1C(OC(C)(C)C)C(=O)O` (stereo not shown) [Example 37], for which the EC50 is greater than 1 µM.
In the case of `Cc1nc2cc(-c3ccccc3)nn2c(-c2cc(F)c3c(c2C)CCCO3)c1C(OC(C)(C)C)C(=O)O` (stereo not shown) [Example 38], the EC50 was in the range of 0.1 to 1 µM.
`Cc1nc2cc(-c3ccccc3)nn2c(-c2cc(F)c3c(c2C)CCCO3)c1[C@H](OC(C)(C)C)C(=O)O` [Example 39, (2S)-2-tert-butoxy-2-(7-(8-fluoro-5-methylchroman-6-yl)-5-methyl-2-phenylpyrazolo[1,5-a]pyrimidin-6-yl)acetic acid]: the EC50 is less than 0.1 µM.
Regarding `Cc1nc2cc(-c3ccccc3)nn2c(-c2cc(F)c3c(c2C)CCCO3)c1[C@@H](OC(C)(C)C)C(=O)O` [Example 40, (2R)-2-tert-butoxy-2-(7-(8-fluoro-5-methylchroman-6-yl)-5-methyl-2-phenylpyrazolo[1,5-a]pyrimidin-6-yl)acetic acid], the EC50 is greater than 1 µM.
For `Cc1ccc(-c2c(C(OC(C)(C)C)C(=O)O)c(C)nc3cc(-c4ccccc4)nn23)cc1` (stereo not shown) [Example 41, 2-tert-Butoxy-2-(5-methyl-2-phenyl-7-p-tolylpyrazolo[1,5-a]pyrimidin-6-yl)acetic acid, TFA salt], the EC50 lay within 0.1 to 1 µM.
As to `Cc1ccc(-c2c(C(OC(C)(C)C)C(=O)O)c(C)nc3ccnn23)cc1` (stereo not shown) [Example 42, 2-tert-Butoxy-2-(5-methyl-7-p-tolylpyrazolo[1,5-a]pyrimidin-6-yl)acetic acid, TFA salt], the EC50 was greater than 1 µM.
Take `Cc1nc2cc(-c3ccccc3)nn2c(C)c1C(OC(C)(C)C)C(=O)O` (stereo not shown) [Example 43, 2-tert-Butoxy-2-(5,7-dimethyl-2-phenylpyrazolo[1,5-a]pyrimidin-6-yl)acetic acid, TFA salt]: the EC50 was greater than 1 µM.
In the case of `Cc1nc2c(-c3ccccc3)cnn2c(-c2cc(F)c3c(c2C)CCCO3)c1C(OC(C)(C)C)C(=O)O` (stereo not shown) [Example 44, 2-tert-Butoxy-2-(7-(8-fluoro-5-methylchroman-6-yl)-5-methyl-3-phenylpyrazolo[1,5-a]pyrimidin-6-yl)acetic acid, TFA salt], the EC50 was greater than 1 µM.
For `Cc1nc2c(-c3ccccc3)cnn2c(-c2ccc3c(c2)CCCO3)c1C(OC(C)(C)C)C(=O)O` (stereo not shown) [Example 45, 2-tert-Butoxy-2-(7-(chroman-6-yl)-5-methyl-3-phenylpyrazolo[1,5-a]pyrimidin-6-yl)acetic acid, TFA salt], the EC50 lay within 0.1 to 1 µM.
For the compound `Cc1ccc(-c2cc3nc(C)c(C(OC(C)(C)C)C(=O)O)c(-c4cc(F)c5c(c4C)CCCO5)n3n2)cc1` (stereo not shown) [Example 46, 2-tert-Butoxy-2-(7-(8-fluoro-5-methylchroman-6-yl)-5-methyl-2-p-tolylpyrazolo[1,5-a]pyrimidin-6-yl)acetic acid, TFA salt], the EC50 is less than 0.1 µM.
Consider `Cc1ccc(-c2cc3nc(C)c(C(OC(C)(C)C)C(=O)O)c(-c4ccc5c(c4)CCCO5)n3n2)cc1` (stereo not shown) [Example 47], for which the EC50 is less than 0.1 µM.
For the compound `Cc1nc2cc(-c3ccccc3)nn2c(-c2cc3ccccc3n2C)c1C(OC(C)(C)C)C(=O)O` (stereo not shown) [Example 48], the EC50 was greater than 1 µM.
On the same count and under the same terms, then `CCC(C)c1ccc(-c2c(C(OC(C)(C)C)C(=O)O)c(C)nc3cc(-c4ccccc4)nn23)cc1` (stereo not shown) [Example 49], with greater than 1 µM; and `Cc1nc2cc(-c3ccccc3)nn2c(-c2ccc3ncccc3c2)c1C(OC(C)(C)C)C(=O)O` (stereo not shown) [Example 50], with greater than 1 µM; and `Cc1nc2cc(-c3ccccc3)nn2c(-c2ccc3cc[nH]c3c2)c1C(OC(C)(C)C)C(=O)O` (stereo not shown) [Example 51], with greater than 1 µM.
On to `COc1ccc(-c2c(C(OC(C)(C)C)C(=O)O)c(C)nc3cc(-c4ccccc4)nn23)c(Cl)c1` (stereo not shown) [Example 52], for which the EC50 was greater than 1 µM.
Regarding `Cc1ccc(-c2c(C(OC(C)(C)C)C(=O)O)c(C)nc3cc(-c4ccccc4)nn23)c(Cl)c1` (stereo not shown) [Example 53], the EC50 lay in the range of 0.1 to 1 µM.
On the same count and under the same terms, next, `Cc1ccc(-c2c(C(OC(C)(C)C)C(=O)O)c(C)nc3cc(-c4ccccc4)nn23)c(F)c1` (stereo not shown) [Example 54]: 0.1 to 1 µM; `Cc1nc2cc(-c3ccccc3)nn2c(-c2ccccc2Cl)c1C(OC(C)(C)C)C(=O)O` (stereo not shown) [Example 55]: greater than 1 µM; `CCc1ccc(-c2c(C(OC(C)(C)C)C(=O)O)c(C)nc3cc(-c4ccccc4)nn23)cc1` (stereo not shown) [Example 56]: greater than 1 µM.

Staying with this assay, now noted: NL43, 120 h, read-out: EC50 μM.
On to `Cc1ccc(-c2c(C(OC(C)(C)C)C(=O)O)c(C)nc3cc(-c4ccccc4)nn23)cc1` (stereo not shown) [Example 41, 2-tert-Butoxy-2-(5-methyl-2-phenyl-7-p-tolylpyrazolo[1,5-a]pyrimidin-6-yl)acetic acid, TFA salt], for which the EC50 was determined as 0.6 µM.
On the same count and under the same terms, next, `Cc1ccc(-c2c(C(OC(C)(C)C)C(=O)O)c(C)nc3ccnn23)cc1` (stereo not shown) [Example 42, 2-tert-Butoxy-2-(5-methyl-7-p-tolylpyrazolo[1,5-a]pyrimidin-6-yl)acetic acid, TFA salt]: 4.5 µM.
Same read-out and setting: then `Cc1nc2cc(-c3ccccc3)nn2c(C)c1C(OC(C)(C)C)C(=O)O` (stereo not shown) [Example 43, 2-tert-Butoxy-2-(5,7-dimethyl-2-phenylpyrazolo[1,5-a]pyrimidin-6-yl)acetic acid, TFA salt], with 40 µM.
Regarding `Cc1nc2c(-c3ccccc3)cnn2c(-c2cc(F)c3c(c2C)CCCO3)c1C(OC(C)(C)C)C(=O)O` (stereo not shown) [Example 44, 2-tert-Butoxy-2-(7-(8-fluoro-5-methylchroman-6-yl)-5-methyl-3-phenylpyrazolo[1,5-a]pyrimidin-6-yl)acetic acid, TFA salt], the EC50 was found to be 3 µM.
For `Cc1nc2c(-c3ccccc3)cnn2c(-c2ccc3c(c2)CCCO3)c1C(OC(C)(C)C)C(=O)O` (stereo not shown) [Example 45, 2-tert-Butoxy-2-(7-(chroman-6-yl)-5-methyl-3-phenylpyrazolo[1,5-a]pyrimidin-6-yl)acetic acid, TFA salt], the EC50 turned out to be 0.24 µM.
For `Cc1ccc(-c2cc3nc(C)c(C(OC(C)(C)C)C(=O)O)c(-c4cc(F)c5c(c4C)CCCO5)n3n2)cc1` (stereo not shown) [Example 46, 2-tert-Butoxy-2-(7-(8-fluoro-5-methylchroman-6-yl)-5-methyl-2-p-tolylpyrazolo[1,5-a]pyrimidin-6-yl)acetic acid, TFA salt], the EC50 amounted to 0.09 µM.
Turning to `Cc1ccc(-c2cc3nc(C)c(C(OC(C)(C)C)C(=O)O)c(-c4ccc5c(c4)CCCO5)n3n2)cc1` (stereo not shown) [Example 47], the EC50 is 0.08 µM.
On the same count and under the same terms, then `Cc1nc2cc(-c3ccccc3)nn2c(-c2ccc3ncccc3c2)c1C(OC(C)(C)C)C(=O)O` (stereo not shown) [Example 50], with 2.4 µM.
